In ChEMBL document CHEMBL6096737, “Discovery of Pyrrolopyrazine Carboxamide Derivatives as Potent and Selective FGFR2/3 Inhibitors that Overcome Mutant Resistance” (J Med Chem, 2025):

Columns and labels:
physchem [1] = conditions: glutathione (GSH) solution, 0.1 uM GSH
physchem [2] = conditions: glutathione (GSH) solution, 1 uM GSH
in vivo [3] = conditions: female, CD-1, mouse, plasma, iv, 1 mg/kg
in vivo [4] = conditions: female, CD-1, mouse, po, 10 mg/kg
in vivo [5] = conditions: female, CD-1, mouse, po, 10 mg/kg; remark: listed apart in the source
in vitro = conditions: human, plasma
in vivo [6] = conditions: female, CD-1, mouse, po, 10 mg/kg; remark: listed apart in the source
in vivo [7] = conditions: female, CD-1, mouse, po, 10 mg/kg; remark: listed apart in the source
in vivo [8] = conditions: female, CD-1, mouse, po, 10 mg/kg; remark: listed apart in the source
in vivo [9] = conditions: male, Sprague-Dawley, rat, plasma, iv, 1 mg/kg
in vivo [10] = conditions: male, Sprague-Dawley, rat, po, 10 mg/kg
in vivo [11] = conditions: male, Sprague-Dawley, rat, po, 10 mg/kg; remark: listed apart in the source
in vivo [12] = conditions: male, Sprague-Dawley, rat, po, 10 mg/kg; remark: listed apart in the source
in vivo [13] = conditions: male, Sprague-Dawley, rat, po, 10 mg/kg; remark: listed apart in the source
in vivo [14] = conditions: male, Sprague-Dawley, rat, po, 10 mg/kg; remark: listed apart in the source
in vivo [15] = conditions: male, Beagle, dog, plasma, iv, 1 mg/kg
in vivo [16] = conditions: male, Beagle, dog, po, 5 mg/kg
in vivo [17] = conditions: male, Beagle, dog, po, 5 mg/kg; remark: listed apart in the source
in vivo [18] = conditions: male, Beagle, dog, po, 5 mg/kg; remark: listed apart in the source
in vivo [19] = conditions: male, Beagle, dog, po, 5 mg/kg; remark: listed apart in the source
in vivo [20] = conditions: male, Beagle, dog, po, 5 mg/kg; remark: listed apart in the source
in vivo [21] = conditions: female, Balb/c, mouse, po, 10 mg/kg
in vivo [22] = conditions: female, Balb/c, mouse, po, 10 mg/kg; remark: listed apart in the source
in vivo [23] = conditions: female, Balb/c, mouse, po, 10 mg/kg; remark: listed apart in the source

C=C(CO)C(=O)Nc1ccc(-c2c(-c3ccc(Oc4nccc(C)n4)cc3)c(C(N)=O)c3cnc(C)cn23)cc1
half-life (physchem [1]): 48 min | half-life (physchem [2]): 54 min

C=C(F)C(=O)Nc1ccc(-c2c(-c3ccc(Oc4nccc(C)n4)cc3)c(C(N)=O)c3cnc(C)cn23)c(F)c1
clearance at 24 h (in vivo [3]): 29.1 mL/min/kg | AUC(0-t) at 24 h (in vivo [4]): 2470 ng·h/mL | bioavailability at 24 h (in vivo [5]): 41.9% | half-life (in vitro): > 289 min

C=C(C)C(=O)Nc1ccc(-c2c(-c3ccc(Oc4nccc(C)n4)c(F)c3)c3c(N)ncnc3n2C)cc1 [LIRAFUGRATINIB]
MRT last at 24 h (in vivo [6]): 2 h | Cmax at 24 h (in vivo [7]): 5760 ng/mL | half-life at 24 h (in vivo [8]): 144 min | clearance at 24 h (in vivo [9]): 59.4 mL/min/kg | MRT last at 24 h (in vivo [10]): 13.8 min | Cmax at 24 h (in vivo [11]): 111 ng/mL | AUC(0-t) at 24 h (in vivo [12]): 448 ng·h/mL | half-life at 24 h (in vivo [13]): 46.2 min | bioavailability at 24 h (in vivo [14]): 16% | clearance at 24 h (in vivo [15]): 24.9 mL/min/kg | MRT last at 24 h (in vivo [16]): 52.2 min | Cmax at 24 h (in vivo [17]): 1360 ng/mL | AUC(0-t) at 24 h (in vivo [18]): 2680 ng·h/mL | half-life at 24 h (in vivo [19]): 138 min | bioavailability at 24 h (in vivo [20]): 75.4% | MRT last at 8 h (in vivo [21]): 2.7 h | Cmax at 8 h (in vivo [22]): 3740 ng/mL | AUC(0-t) at 8 h (in vivo [23]): 20000 ng·h/mL | half-life (in vitro): > 289 min
